Drawing on US20080045537A1, “Chemical Compounds” (priority 2004, published 2008), this text covers IC50 for 30 compounds.

Where only a bound is given, the exact number is not on record here.

The assay relates to HIV-1 IIIB (T-tropic, CXCR4 utilizing). Put plainly: HOS HIV-1 infectivity assay. The conditions noted are these: Human immunodeficiency virus 1, IIIB; as determined by the infectivity assay; strain not stated in Table 2; read-out: Activity Level. The format is cell-based. The protocol:
Compounds were profiled against two HIV-1 viruses, the M-tropic (CCR5 utilizing) Ba-L strain and the T-tropic (CXCR4 utilizing) IIIB strain. Both viruses were propagated in human peripheral blood lymphocytes. Compounds were tested for there ability to block infection of the HOS cell line (expressing hCXCR4/hCCR5/hCD4/pHIV-LTR-luciferase) by either HIV-1 Ba-L or HIV-1 IIIB. Compound cytotoxicity was also examined in the absence of virus addition.
HOS cells (expressing hCXCR4/hCCR5/hCD4/pHIV-LTR-luciferase) were harvested and diluted in Dulbeccos modified Eagles media supplemented with 2% FCS and non-essential amino acid to a concentration of 60,000 cells/ml. The cells were plated into 96-well plates (100 ul per well) and the plates were placed in a tissue culture incubator (37° C.; 5% CO2/95% air) for a period of 24 h.
Subsequently, 50 ul of the desired drug solution (4 times the final concentration) was added to each well and the plates were returned to the tissue culture incubator (37° C.; 5% CO2/95% air) for 1 h. Following this incubation 50 ul of diluted virus was added to each well (approximately 2 million RLU per well of virus). The plates were returned to the tissue culture incubator (37° C.; 5% CO2/95% air) and were incubated for a further 96 h.
Following this incubation the endpoint for the virally infected cultures was quantified following addition of Steady-Glo Luciferase assay system reagent (Promega, Madison, Wis.). Cell viability or non-infected cultures was measured using a CellTiter-Glo luminescent cell viability assay system (Promega, Madison, Wis.). All luminescent readouts are performed on a Topcount luminescence detector (Packard, Meridien, Conn.).
In the case of `CN(C)CCCc1cccc2[nH]c(CN(C)C3CCCc4cccnc43)nc12` (stereo not drawn) [Example 94, N-({4-[3-(Dimethylamino)propyl]-1H-benzimidazol-2-yl}methyl)-N-methyl-5,6,7,8-tetrahydro-8-quinolinamine], the IC50 is less than 100 nM.

Consider `CCN(Cc1nc2ccc(C(=O)NCCc3cncn3C)cc2[nH]1)C1CCCc2cccnc21` (stereo not drawn) [Example 43, 2-{[ethyl(5,6,7,8-tetrahydro-8-quinolinyl)amino]methyl}-N-[2-(1-methyl-1H-imidazol-5-yl)ethyl]-1H-benzimidazole-5-carboxamide], for which the IC50 lay in the range of 100 to 500 nM.

For `CC1CNCCN1C(=O)c1cccc2[nH]c(CN(C)C3CCCc4cccnc43)nc12` (stereo not drawn) [Example 91, N-methyl-N-({4-[(2-methyl-1-piperazinyl)carbonyl]-1H-benzimidazol-2-yl}methyl)-5,6,7,8-tetrahydro-8-quinolinamine], the IC50 is less than 100 nM.

For the compound `CNCCNC(=O)c1ccc2[nH]c(CN(C)C3CCCc4cccnc43)nc2c1` (stereo not drawn) [Example 53, N-[2-(Methylamino)ethyl]-2-{[methyl(5,6,7,8-tetrahydro-8-quinolinyl)amino]methyl}-1H-benzimidazole-5-carboxamide], the IC50 is less than 100 nM.

On to `CN(C)CC(C)(C)CNC(=O)c1cccc2[nH]c(CN(C)C3CCCc4cccnc43)nc12` (stereo not drawn) [Example 80, N-[3-(Dimethylamino)-2,2-dimethylpropyl]-2-{[methyl(5,6,7,8-tetrahydro-8-quinolinyl)amino]methyl}-1H-benzimidazole-4-carboxamide], for which the IC50 lay in the range of 100 to 500 nM. Consider `CN(Cc1nc2c(C(=O)NC3CCNCC3)cccc2[nH]1)C1CCCc2cccnc21` (stereo not drawn) [Example 77, 2-{[Methyl(5,6,7,8-tetrahydro-8-quinolinyl)amino]methyl}-N-4-piperidinyl-1H-benzimidazole-4-carboxamide], for which the IC50 is 100 to 500 nM. The result for `CCN(Cc1nc2cccc(N3CCN(C)CC3)c2n1C)C1CCCc2cccnc21` (stereo not drawn) [Example 154, N-Ethyl-N-{[1-methyl-7-(4-methyl-1-piperazinyl)-1H-benzimidazol-2-yl]methyl}-5,6,7,8-tetrahydro-8-quinolinamine] reads less than 100 nM. Take `CN1CCC(NC(=O)c2cccc3[nH]c(CN(C)C4CCCc5cccnc54)nc23)CC1` (stereo not drawn) [Example 88, N-(1-methyl-4-piperidinyl)-2-{[methyl(5,6,7,8-tetrahydro-8-quinolinyl)amino]methyl}-1H-benzimidazole-4-carboxamide]: the IC50 was 100 to 500 nM.

Regarding `CN(Cc1nc2cc(C(=O)N3CCN(Cc4ccccc4)CC3)ccc2[nH]1)C1CCCc2cccnc21` (stereo not drawn) [Example 59, N-Methyl-N-[(5-{[4-(phenylmethyl)-1-piperazinyl]carbonyl}-1H-benzimidazol-2-yl)methyl]-5,6,7,8-tetrahydro-8-quinolinamine], the IC50 was in the range of 500 to 10000 nM. Turning to `CN(Cc1nc2cc(C(N)=O)ccc2[nH]1)C1CCCc2cccnc21` (stereo not drawn) [Example 37, 2-{[Methyl(5,6,7,8-tetrahydroquinolin-8-yl)amino]methyl}-1H-benzimidazole-5-carboxamide], the IC50 is less than 100 nM.

With `CN(Cc1nc2c(CCCN)cccc2[nH]1)C1CCCc2cccnc21` (stereo not drawn) [Example 97, N-{[4-(3-aminopropyl)-1H-benzimidazol-2-yl]methyl}-N-methyl-5,6,7,8-tetrahydro-8-quinolinamine], the IC50 was less than 100 nM. In the case of `CN1CCN(c2cccc3nc(CN(CCOCc4ccccc4)[C@H]4CCCc5cccnc54)[nH]c23)CC1` [Example 147], the IC50 was less than 100 nM. To `CNCCN(C)C(=O)c1ccc2[nH]c(CN(C)C3CCCc4cccnc43)nc2c1` (stereo not drawn) [Example 51, N-Methyl-N-[2-(methylamino)ethyl]-2-{[methyl(5,6,7,8-tetrahydro-8-quinolinyl)amino]methyl}-1H-benzimidazole-5-carboxamide] belongs less than 100 nM. Turning to `CN(Cc1nc2cc(C(=O)NCC3CCCCC3)ccc2[nH]1)C1CCCc2cccnc21` (stereo not drawn) [Example 41, N-(Cyclohexylmethyl)-2-{[methyl(5,6,7,8-tetrahydro-8-quinolinyl)amino]methyl}-1H-benzimidazole-5-carboxamide], the IC50 is 500 to 10000 nM.

Turning to `CCCN(Cc1nc2cccc(N3CCN(C)CC3)c2[nH]1)[C@@H]1CCCc2cccnc21` [Example 136, (8R)—N-{[4-(4-methyl-1-piperazinyl)-1H-benzimidazol-2-yl]methyl}-N-propyl-5,6,7,8-tetrahydro-8-quinolinamine], the IC50 was less than 100 nM. To `CN(C)CCNC(=O)c1ccc2[nH]c(CN(C)C3CCCc4cccnc43)nc2c1` (stereo not drawn) [Example 52, N-[2-(Dimethylamino)ethyl]-2-{[methyl(5,6,7,8-tetrahydro-8-quinolinyl)amino]methyl}-1H-benzimidazole-5-carboxamide] belongs less than 100 nM; to `CN1CCN(c2cccc3nc(CN(CC4CC4)[C@@H]4CCCc5cccnc54)[nH]c23)CC1` [Example 139, (8R)—N-(Cyclopropylmethyl)-N-{[4-(4-methyl-1-piperazinyl)-1H-benzimidazol-2-yl]methyl}-5,6,7,8-tetrahydro-8-quinolinamine], less than 100 nM; to `CN(Cc1nc2cc(C(=O)NCC(C)(C)CN)ccc2[nH]1)C1CCCc2cccnc21` (stereo not drawn) [Example 54, N-(3-Amino-2,2-dimethylpropyl)-2-{[methyl(5,6,7,8-tetrahydro-8-quinolinyl)amino]methyl}-1H-benzimidazole-5-carboxamide], 100 to 500 nM. To `CN(C)CCN(C)c1cccc2[nH]c(CN(C)C3CCCc4cccnc43)nc12` (stereo not drawn) [Example 109, [2-(Dimethylamino)ethyl]methyl(2-{[methyl(5,6,7,8-tetrahydro-8-quinolinyl)amino]methyl}-1H-benzimidazol-4-yl)amine] belongs less than 100 nM; to `CCN(Cc1nc2cc(C(=O)NCCN(C)C)ccc2[nH]1)C1CCCc2cccnc21` (stereo not drawn) [Example 50, N-[2-(Dimethylamino)ethyl]-2-{[ethyl(5,6,7,8-tetrahydro-8-quinolinyl)amino]methyl}-1H-benzimidazole-5-carboxamide], 100 to 500 nM; to `CN1CCN(c2cccc3[nH]c([C@@H](COCc4ccccc4)N(C)C4CCCc5cccnc54)nc23)CC1` (stereo partly drawn) [Example 177, N-Methyl-N-{(1S)-1-[4-(4-methyl-1-piperazinyl)-1H-benzimidazol-2-yl]-2-[(phenylmethyl)oxy]ethyl}-5,6,7,8-tetrahydro-8-quinolinamine], less than 100 nM.

`CN(Cc1nc2c(C(=O)NCCCN3CCOCC3)cccc2[nH]1)C1CCCc2cccnc21` (stereo not drawn) [Example 74, 2-{[Methyl(5,6,7,8-tetrahydro-8-quinolinyl)amino]methyl}-N-[3-(4-morpholinyl)propyl]-1H-benzimidazole-4-carboxamide]: the IC50 is less than 100 nM. Regarding `CN1CCN(c2cccc3nc(CN(CCO)[C@H]4CCCc5cccnc54)[nH]c23)CC1` [Example 148, 2-{{[4-(4-Methyl-1-piperazinyl)-1H-benzimidazol-2-yl]methyl}[(8S)-5,6,7,8-tetrahydro-8-quinolinyl]amino}ethanol], the IC50 is less than 100 nM. As to `CN(Cc1nc2c(NC(=O)CCN3CCCCC3)cccc2[nH]1)C1CCCc2cccnc21` (stereo not drawn) [Example 100, N-(2-{[methyl(5,6,7,8-tetrahydro-8-quinolinyl)amino]methyl}-1H-benzimidazol-4-yl)-3-(1-piperidinyl)propanamide], the IC50 was 100 to 500 nM. As to `CCN(Cc1nc2cccc(N3CCN(C)CC3)c2n1CC)[C@H]1CCCc2cccnc21` [Example 166, (8S)—N-Ethyl-N-{[1-ethyl-7-(4-methyl-1-piperazinyl)-1H-benzimidazol-2-yl]methyl}-5,6,7,8-tetrahydro-8-quinolinamine], the IC50 was less than 100 nM. The result for `CN(Cc1nc2c(-n3ccnc3)cccc2[nH]1)C1CCCc2cccnc21` (stereo not drawn) [Example 101, N-{[4-(1H-Imidazol-1-yl)-1H-benzimidazol-2-yl]methyl}-N-methyl-5,6,7,8-tetrahydro-8-quinolinamine] reads 100 to 500 nM; that for `C[C@H](c1nc2c(N3CCN(C)CC3)cccc2[nH]1)N(C)C1CCCc2cccnc21` (stereo partly drawn) [Example 172, N-Methyl-N-{(1R)-1-[4-(4-methyl-1-piperazinyl)-1H-benzimidazol-2-yl]ethyl}-5,6,7,8-tetrahydro-8-quinolinamine], less than 100 nM; that for `CN1CCN(c2cccc3nc(CN(CCO)[C@H]4CCCc5cccnc54)n(C)c23)CC1` [Example 180, 2-{{[1-Methyl-7-(4-methyl-1-piperazinyl)-1H-benzimidazol-2-yl]methyl}[(8S)-5,6,7,8-tetrahydro-8-quinolinyl]amino}ethanol], less than 100 nM. As for `CN1CCN(c2cccc3nc(CN(CCCO)[C@H]4CCCc5cccnc54)[nH]c23)CC1` [Example 149, 3-{{[4-(4-Methyl-1-piperazinyl)-1H-benzimidazol-2-yl]methyl}[(8S)-5,6,7,8-tetrahydro-8-quinolinyl]amino}-1-propanol], the IC50 is less than 100 nM. With `CN(Cc1nc2c(C(=O)NCCc3cncn3C)cccc2[nH]1)C1CCCc2cccnc21` (stereo not drawn) [Example 67, N-[2-(1-methyl-1H-imidazol-5-yl)ethyl]-2-{[methyl(5,6,7,8-tetrahydro-8-quinolinyl)amino]methyl}-1H-benzimidazole-4-carboxamide], the IC50 was 100 to 500 nM.
